Where no end group is shown, it is not given here.
Columns and labels:
AMPK = assay: Western blot of AMPK phosphorylation in myocytes with palmitate-induced insulin metabolic disorder; format: cell-based, mouse; conditions: C2C12 myocytes in insulin metabolic disorder induced by palmitate treatment; 0.2, 2, 20 μg/mL; 24 hours; Western blot (FIGS. 7a, 7b)
Description: (§1) An experiment was performed to determine whether the peptide complex increases AMPK phosphorylation and SIRT1 expression levels in myocytes in a state of insulin metabolic disorder induced by palmitate treatment.
(§2) C2C12 cells, mouse-derived myoblasts, were cultured in DMEM medium containing 1% P/S and 2% BCS. When the cell confluency reached 70-80%, the cells were seeded in a 6-well culture plate. When the cell confluency in the 6-well culture plate reached 100%, the medium was replaced with differentiation medium (1% P/S, 2% horse serum), and thereafter, the differentiation medium (1% P/S, 2% horse serum) was replaced once every two days. Five days after the first replacement, the peptide complex was treated at concentrations of 0.2 μg/mL, 2 μg/mL, and 20 μg/mL and cultured for 24 hours. The group untreated with the peptide complex was used as the control. After dissolving by adding dissolution buffer thereto, the proteins obtained were centrifuged at 4° C. and 12,000 rpm for 30 minutes, and quantified using a BCA kit. The proteins were subjected to sodium dodecyl sulfate-polyacrylamide gel electrophoresis (SDS-PAGE) and then electrotransferred onto a membrane. The membrane with the proteins attached was blocked by treating it with 5% skim milk, and then the primary antibody was reacted overnight at 4° C. […]

SIRT1 = assay: Western blot of SIRT1 expression in myocytes with palmitate-induced insulin metabolic disorder; format: cell-based, mouse; conditions: C2C12 myocytes in insulin metabolic disorder induced by palmitate treatment; 0.2, 2, 20 μg/mL; 24 hours; Western blot (FIGS. 7a, 7b)
Description: as §1, §2

FGF21 = assay: Western blot of FGF21 protein expression in myocytes; format: cell-based, mouse; conditions: differentiated C2C12 myocytes; 0.2, 2, 20 μg/mL; 24 hours; Western blot (FIGS. 6a, 6b)
Description: An experiment was performed to determine whether the peptide complex increases the phosphorylation of AMPK and the expression of SIRT1 and FGF21 proteins in myocytes.
as §2

[1] = test system: AMP-activated protein kinase (AMPK); assay: Western blot of AMPK phosphorylation in adipocytes; format: cell-based; conditions: differentiated 3T3-L1 adipocytes; 0.2, 2, 20 μg/mL; 1 hour; Western blot (FIGS. 1a, 1b)
Description: An experiment was performed to determine whether the peptide complex prepared in Preparation Example 1 using adipocytes increases the phosphorylation of AMP-activated protein kinase (AMPK), which is a longevity-related protein, and increases the expression levels of sirtuin 1 (SIRT1) and fibroblast growth factor 21 (FGF21) proteins in adipocytes.
When 3T3-L1 preadipocytes reached 80% confluence, they were seeded at 5×10^3 cells/well in a 96-well plate and used for the experiment. Two days after reaching confluence, the medium was replaced with a differentiation-inducing medium to induce the differentiation into adipocytes, and two days after the induction, the cells were cultured for 2 days in a medium containing 10% FBS and 10 μg/mL insulin, and then the medium was replaced with 10% FBS every 2 days until their differentiation into adipocytes. Once the differentiation was complete, the medium was replaced with a serum-free medium and cultured for 4 hours to induce starvation. The peptide complexes were treated at concentrations of 0.2 μg/mL, 2 μg/mL, and 20 μg/mL, incubated for 1 hour, dissolved by adding dissolution buffer thereto, and the proteins obtained by centrifugation at 4° C. and 12,000 rpm for 30 minutes were quantified using a BCA kit. […]

FGF21 protein = assay: ELISA of FGF21 protein expression in adipocytes; format: cell-based; conditions: differentiated 3T3-L1 adipocytes, 0.2, 2, 20 μg/mL, ELISA (FIG. 2)
Description: An experiment was performed using adipocytes to determine whether the peptide complex prepared in Preparation Example 1 increases the expression level of FGF21 protein, a longevity-related protein, in adipocytes.
When 3T3-L1 preadipocytes reached 80% confluence, they were seeded at 5×10^3 cells/well in a 96-well plate and used for the experiment. Two days after reaching confluence, the medium was replaced with a differentiation-inducing medium to induce the differentiation into adipocytes, and two days after the induction, the cells were cultured for 2 days in a medium containing 10% FBS and 10 μg/mL insulin, and then the medium was replaced with 10% FBS every 2 days until differentiation into adipocytes. Once the differentiation was complete, the medium was replaced with a serum-free medium and cultured for 4 hours to induce starvation. The peptide complexes were treated at concentrations of 0.2 μg/mL, 2 μg/mL, and 20 μg/mL, and cultured for 48 and 72 hours, respectively. The complexes were dissolved by adding dissolution buffer thereto, and the proteins obtained by centrifugation at 4° C. and 12,000 rpm for 10 minutes were analyzed using a Quantikine ELISA Kit, and the absorbance was measured at 450 nm using a Microplate Reader.

peptide complex: prepared by mixing equal amounts of the peptide of SEQ ID NO: 1 (LKTRN) and the peptide of SEQ ID NO: 2 (KGSATGWMA) (also: mixture of two peptides)
increased: phosphorylation of AMPK (AMPK) | expression level of SIRT1 protein (SIRT1) | expression level of FGF21 protein (FGF21) | phosphorylation of AMPKα [1] | expression level of FGF21 protein (FGF21 protein; 48 hours) | expression level of FGF21 protein (FGF21 protein; 72 hours)

From patent US20260234185A1, “ANTI-AGING COMPOSITION COMPRISING PEPTIDE COMPLEX AS ACTIVE INGREDIENT” (priority 2023, published 2026)
